Values joined by “and” are separate entries in the source; they are usually repeats but may differ in a detail not shown here. Identical values can stand only once. Like-named read-outs stand apart in the source and are kept apart here. Each block holds one molecule with its values, some of them ahead of it.
Columns and labels:
[1] = molecular target: T1, human recombinant adrenergic α2B receptor (Homo sapiens, UniProt P18089); assay: Radioligand binding, adrenergic α2B ([3H]Rauwolscine); conditions: for Ki: read-out: Ki α2B; for Percentage inhibition of ligand binding, Adrenergic α2B (0.03 μM) / Percentage inhibition of ligand binding, Adrenergic α2B: 0.03 µM
T1 construct: expressed in transfected cells; host or cells: CHO-K1
T1 sequence (P18089 1-450): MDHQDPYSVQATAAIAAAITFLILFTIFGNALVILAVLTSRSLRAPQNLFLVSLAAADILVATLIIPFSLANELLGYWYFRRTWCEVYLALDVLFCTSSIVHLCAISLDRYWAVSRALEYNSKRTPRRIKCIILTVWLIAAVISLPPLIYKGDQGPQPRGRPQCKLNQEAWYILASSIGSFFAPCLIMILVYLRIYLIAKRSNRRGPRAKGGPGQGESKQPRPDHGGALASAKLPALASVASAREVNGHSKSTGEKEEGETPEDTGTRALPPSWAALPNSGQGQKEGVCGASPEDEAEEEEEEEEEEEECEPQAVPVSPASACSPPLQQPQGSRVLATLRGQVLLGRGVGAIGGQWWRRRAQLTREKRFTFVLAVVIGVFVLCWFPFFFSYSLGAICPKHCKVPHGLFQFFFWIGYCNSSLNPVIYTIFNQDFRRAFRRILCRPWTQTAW
How it was run: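 Assay used CHO-K1-expressed human α2B receptor in Tris-HCl pH 7.4 buffer with MgCl2, EDTA and BSA; 60 min incubation at 25 °C.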

[2] = molecular target: T2, human recombinant adrenergic α2A receptor (Homo sapiens, UniProt P08913); assay: Radioligand binding, adrenergic α2A ([3H]MK-912)
T2 construct: expressed in transfected cells; host or cells: insect Sf9 cells
T2 sequence (P08913 1-465): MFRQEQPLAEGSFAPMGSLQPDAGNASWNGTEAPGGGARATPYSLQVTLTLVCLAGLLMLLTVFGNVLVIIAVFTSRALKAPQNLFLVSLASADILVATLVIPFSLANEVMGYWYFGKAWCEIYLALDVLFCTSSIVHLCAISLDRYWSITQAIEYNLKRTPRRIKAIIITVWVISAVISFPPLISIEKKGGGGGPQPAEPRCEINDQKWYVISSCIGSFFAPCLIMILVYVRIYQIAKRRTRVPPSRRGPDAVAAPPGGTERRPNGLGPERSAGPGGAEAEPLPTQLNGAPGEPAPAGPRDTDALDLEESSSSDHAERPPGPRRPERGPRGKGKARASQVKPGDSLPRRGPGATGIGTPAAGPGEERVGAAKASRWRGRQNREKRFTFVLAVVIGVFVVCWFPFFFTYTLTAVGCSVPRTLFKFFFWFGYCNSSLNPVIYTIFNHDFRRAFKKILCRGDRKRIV
How it was run: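 In 50 mM Tris-HCl (pH 7.4) containing 12.5 mM MgCl2 and 2 mM EDTA, Sf9-expressed receptor was exposed to test compound plus 1 nM [3H]MK-912 at 25 °C for 60 min. Specific binding, corrected using 10 μM WB-4101, was quantified by filtration and counting and expressed as percent inhibition.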

[3] = molecular target: T3, rat adrenergic α1B receptor (Rattus norvegicus, UniProt P15823); assay: Radioligand binding, adrenergic α1B ([3H]Prazosin); conditions: for Percentage inhibition of ligand binding, Adrenergic α1B (0.1 μM) / Percentage inhibition of ligand binding, Adrenergic α1B: 0.1 µM
T3 construct: rat adrenergic α1B receptor obtained from Wistar Rat liver; from tissue; host or cells: Wistar rat liver
T3 sequence (P15823 1-515): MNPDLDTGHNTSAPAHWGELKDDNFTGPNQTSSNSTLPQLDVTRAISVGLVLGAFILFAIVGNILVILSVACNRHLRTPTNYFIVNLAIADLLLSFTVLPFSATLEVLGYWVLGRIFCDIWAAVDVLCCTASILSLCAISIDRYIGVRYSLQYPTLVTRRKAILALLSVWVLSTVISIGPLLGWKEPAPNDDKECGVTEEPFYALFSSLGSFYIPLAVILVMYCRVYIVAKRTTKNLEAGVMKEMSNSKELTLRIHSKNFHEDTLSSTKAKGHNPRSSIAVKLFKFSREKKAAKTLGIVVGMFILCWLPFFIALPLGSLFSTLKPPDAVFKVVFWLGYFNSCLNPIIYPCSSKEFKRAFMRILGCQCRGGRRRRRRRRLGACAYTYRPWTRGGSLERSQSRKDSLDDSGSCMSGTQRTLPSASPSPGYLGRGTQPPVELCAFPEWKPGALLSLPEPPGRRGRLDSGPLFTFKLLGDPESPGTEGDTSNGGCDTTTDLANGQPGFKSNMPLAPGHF
How it was run: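 Filter binding with Wistar rat liver α1B preparation: test compound plus 0.25 nM [3H]prazosin, 1 h at 25° C in modified Tris-HCl buffer pH 7.4.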

[4] = compound at 0.03 μM, [3H]Rauwolscine, repeat datapoints each shown
[5] = compound at 0.1 μM, [3H]MK-912, repeat datapoints each shown, 0.1 µM
[6] = compound at 0.1 μM, [3H]Prazosin, repeat datapoints each shown
[7] = 0.03 μM compound, read-out: Percentage inhibition of ligand binding, Adrenergic α2B
[8] = 0.1 μM compound, read-out: Percentage inhibition of ligand binding, Adrenergic α2A
[9] = 0.1 μM compound, read-out: Percentage inhibition of ligand binding, Adrenergic α1B
[10] = compound at 0.03 μM, [3H]Rauwolscine, repeat assays, each datapoint shown, read-out: Percentage inhibition of ligand binding, Adrenergic α2B
[11] = compound at 0.1 μM, [3H]MK-912, repeat assays, each datapoint shown, read-out: Percentage inhibition of ligand binding, Adrenergic α2A
[12] = compound at 0.03 μM, [3H]Rauwolscine, repeat assays, each datapoint shown
[13] = compound at 0.1 μM, [3H]Prazosin, repeat assays, each datapoint shown

- Percentage inhibition of ligand binding, Adrenergic α2B (0.03 μM) [1, 4]: 32%
- Percentage inhibition of ligand binding, Adrenergic α2A (0.1 μM) [2, 5]: 19%
- Percentage inhibition of ligand binding, Adrenergic α1B (0.1 μM) [3, 6]: 16%
SMILES: Cc1ccc2c(c1)c1c(n2CC(C)(N)c2cccnc2)CCN(C)C1 (single isomer, unassigned) [149b, 1-(2,8-dimethyl-3,4-dihydro-1H-pyrido[4,3-b]indol-5(2H)-yl)-2-(pyridin-3-yl)propan-2-amine]

- inhibition at 0.03 µM [1, 7]: 73%
- inhibition at 0.1 µM [2, 8]: 9%
- inhibition at 0.1 µM [3, 9]: 9%
SMILES: Cc1ccc2c(c1)c1c(n2CC(NC2CCC2)c2ccncc2)CCN(C)C1 (stereo not drawn) [II-13, cyclobutyl-[2-(2,8-dimethyl-1,2,3,4-tetrahydro-pyrido[4,3-b]indol-5-yl)-1-pyridin-4-yl-ethyl]-amine]

- Percentage inhibition of ligand binding, Adrenergic α2B (0.03 μM) [1, 4]: 91% and 102%
- Ki [1]: 1.49 nM
- Percentage inhibition of ligand binding, Adrenergic α2A (0.1 μM) [2, 5]: 19%
- Percentage inhibition of ligand binding, Adrenergic α1B (0.1 μM) [3, 6]: 7%
SMILES: Cc1ccc2c(c1)c1c(n2CC(OC(=O)c2ccncc2)c2ccncc2)CCN(C)C1 (stereo not drawn) [compound 147, isonicotinic acid 2-(2,8-dimethyl-1,2,3,4-tetrahydro-pyrido[4,3-b]indol-5-yl)-1-pyridin-4-yl-ethylester]

- Percentage inhibition of ligand binding, Adrenergic α2B [1, 12]: 21%
- Percentage inhibition of ligand binding, Adrenergic α2A ([2]; compound at 0.1 μM, [3H]MK-912, repeat assays, each datapoint shown, 0.1 µM): 11%
- Percentage inhibition of ligand binding, Adrenergic α1B [3, 13]: 8%
SMILES: COc1ccc(C(O)Cn2c3c(c4cc(C)ccc42)CN(C)CC3)cn1 (single isomer, unassigned) [51a, 2-(2,8-dimethyl-1,2,3,4-tetrahydro-pyrido[4,3-b]indol-5-yl)-1-(6-methoxy-pyridin-3-yl)-ethanol]

- Percentage inhibition of ligand binding, Adrenergic α2B [1, 12]: 26% and 30%
- inhibition at 0.1 µM ([1]; compound at 0.1 μM, [3H]Rauwolscine, repeat assays, each datapoint shown, read-out: Percentage inhibition of ligand binding, Adrenergic α2B): 62%
- Ki [1]: 27.4 nM
- inhibition at 0.1 µM [2, 11]: 16%
- inhibition at 0.03 µM ([3]; compound at 0.03 μM, [3H]Prazosin, repeat assays, each datapoint shown, read-out: Percentage inhibition of ligand binding, Adrenergic α1B): 18%
SMILES: Cc1ccc2c(c1)c1c(n2CC(O)c2ccncc2)CCN(C)C1 (single isomer, unassigned) [3a]

The remaining lines, values behind:

SMILES: COc1ccc(C(O)Cn2c3c(c4cc(C)ccc42)CN(C)CC3)cc1OC (stereo not drawn) [compound 66, 1-(3,4-dimethoxy-phenyl)-2-(2,8-dimethyl-1,2,3,4-tetrahydro-pyrido[4,3-b]indol-5-yl)-ethanol]
- inhibition at 0.03 µM [1, 10]: 69%
- inhibition at 0.1 µM [2, 11]: 15%
- inhibition at 0.1 µM ([3]; compound at 0.1 μM, [3H]Prazosin, repeat assays, each datapoint shown, read-out: Percentage inhibition of ligand binding, Adrenergic α1B): 48%

SMILES: CN1CCc2c(c3cc(Cl)ccc3n2CC(C)(O)c2ccc(C(F)(F)F)nc2)C1 (single isomer, unassigned) [143b]
- Percentage inhibition of ligand binding, Adrenergic α2B (0.03 μM) [1, 4]: 49%
- Percentage inhibition of ligand binding, Adrenergic α2A (0.1 μM) [2, 5]: 0%
- Percentage inhibition of ligand binding, Adrenergic α1B (0.1 μM) [3, 6]: 17%

SMILES: CC(O)(Cn1c2c(c3cc(Cl)ccc31)C1CCCN1CC2)c1cccnc1 (single isomer, unassigned) [II-130a, 1-(10-chloro-2,3,5,6-tetrahydro-1H-indolizino[7,8-b]indol-7(11cH)-yl)-2-(pyridin-3-yl)propan-2-ol]
- Percentage inhibition of ligand binding, Adrenergic α2B (0.03 μM) [1, 4]: 103%
- Percentage inhibition of ligand binding, Adrenergic α2A (0.1 μM) [2, 5]: 86%
- Percentage inhibition of ligand binding, Adrenergic α1B (0.1 μM) [3, 6]: 92%

SMILES: CN1CCc2c(n(CC(O)c3cccnc3)c3ccc(Cl)cc23)C1 (stereo not drawn) [II-87]
- inhibition at 0.03 µM [1, 7]: 24%
- inhibition at 0.1 µM [2, 8]: 1%
- inhibition at 0.1 µM [3, 9]: 11%

SMILES: Cc1ccc2c(c1)c1c(n2CC(O)c2ccc(F)cc2)CN(C)CC1 (single isomer, unassigned) [18a, 2-(2,6-dimethyl-1,2,3,4-tetrahydro-β-carbolin-9-yl)-1-(4-fluoro-phenyl)-ethanol]
- inhibition at 0.03 µM [1, 10]: 54%
- inhibition at 0.1 µM [2, 11]: 50%
- Percentage inhibition of ligand binding, Adrenergic α1B [3, 13]: 55%

SMILES: Cc1cnc2c(c1)c1c(n2CC(N=[N+]=[N-])c2ccncc2)CCN(C)C1 (stereo not drawn) [V-2, 9-(2-azido-2-(pyridin-4-yl)ethyl)-3,6-dimethyl-6,7,8,9-tetrahydro-5H-pyrrolo[2,3-b:4,5-c′]dipyridine]
- inhibition at 0.03 µM ([1]; read-out: Percentage inhibition of ligand binding, Adrenergic α2B (0.03 μM), compound at 0.03 μM, [3H]Rauwolscine, repeat datapoints each shown): 61%
- inhibition at 0.1 µM ([2]; read-out: Percentage inhibition of ligand binding, Adrenergic α2A (0.1 μM), compound at 0.1 μM, [3H]MK-912, repeat datapoints each shown): 2%
- inhibition at 0.1 µM ([3]; read-out: Percentage inhibition of ligand binding, Adrenergic α1B (0.1 μM), compound at 0.1 μM, [3H]Prazosin, repeat datapoints each shown): 49%
